This is an account of results in patent publication US20050113292A1 (priority 2003, published 2005).

The term IC50 denotes the concentration needed to halve the response being measured.

Assay [1] deals with HIV-1 mediated cell-cell fusion (R8 virus). The following applies: mediated cell-cell fusion (R8 virus).
A further assay deals with T-tropic (R8) HIV-1. The following applies: T-tropic (R8).
For another assay, the system named is M-tropic (BAL) HIV-1. As to conditions: M-tropic (BAL).

For the compound `CC(C)C[C@H](NC(=O)[C@H](CO)NC(=O)[C@H](C)NC(=O)[C@H](Cc1c[nH]c2ccccc12)NC(=O)[C@H](CCCCN)NC(=O)[C@H](CC(=O)O)NC(=O)[C@H](CC(C)C)NC(=O)[C@H](CCC(=O)O)NC(=O)[C@H](CC(C)C)NC(=O)[C@@H]1CSC(C(=O)NCCCC[C@H](NC(=O)CCNC(=O)C2N[C@H](C(=O)N[C@@H](CC(C)C)C(=O)N[C@@H](CCC(=O)O)C(=O)N[C@@H](CC(C)C)C(=O)N[C@@H](CC(=O)O)C(=O)N[C@@H](CCCCN)C(=O)N[C@@H](Cc3c[nH]c4ccccc34)C(=O)N[C@@H](C)C(=O)N[C@@H](CO)C(=O)N[C@@H](CC(C)C)C(=O)N[C@@H](Cc3c[nH]c4ccccc34)C(=O)N[C@@H](CC(N)=O)C(=O)N[C@@H](Cc3c[nH]c4ccccc34)C(=O)N[C@@H](Cc3ccccc3)C(=O)O)CS2)C(=O)N[C@@H](CO)C(=O)N[C@@H](CO)C(=O)N[C@@H](C)C(N)=O)N1)C(=O)N[C@@H](Cc1c[nH]c2ccccc12)C(=O)N[C@@H](CC(N)=O)C(=O)N[C@@H](Cc1c[nH]c2ccccc12)C(=O)N[C@@H](Cc1ccccc1)C(=O)O` (stereo partly drawn) [Compound 2α-C13], the half-maximal inhibitory concentration (IC50) in assay [1] was 290 nM; with T-tropic (R8) HIV-1, 310 nM; in the assay on M-tropic (BAL) HIV-1, 430 nM.

Take `CC(C)C[C@H](NC(=O)[C@H](CO)NC(=O)[C@H](C)NC(=O)[C@H](Cc1c[nH]c2ccccc12)NC(=O)[C@H](CCCCN)NC(=O)[C@H](CC(=O)O)NC(=O)[C@H](CC(C)C)NC(=O)[C@H](CCC(=O)O)NC(=O)[C@H](CC(C)C)NC(=O)[C@H](CC(C)C)NC(=O)[C@H](CCC(=O)O)NC(=O)[C@H](CCC(N)=O)NC(=O)[C@H](CCC(=O)O)NC(=O)[C@H](CC(N)=O)NC(=O)[C@H](CCCCN)NC(=O)[C@H](CCC(=O)O)NC(=O)[C@H](CCC(N)=O)NC(=O)[C@H](CCC(N)=O)NC(=O)[C@H](CC(N)=O)NC(=O)[C@H](CCC(N)=O)NC(=O)[C@@H]1CSC(C(=O)NCCCC[C@H](NC(=O)CCNC(=O)C2N[C@H](C(=O)N[C@@H](CCC(N)=O)C(=O)N[C@@H](CC(N)=O)C(=O)N[C@@H](CCC(N)=O)C(=O)N[C@@H](CCC(N)=O)C(=O)N[C@@H](CCC(=O)O)C(=O)N[C@@H](CCCCN)C(=O)N[C@@H](CC(N)=O)C(=O)N[C@@H](CCC(=O)O)C(=O)N[C@@H](CCC(N)=O)C(=O)N[C@@H](CCC(=O)O)C(=O)N[C@@H](CC(C)C)C(=O)N[C@@H](CC(C)C)C(=O)N[C@@H](CCC(=O)O)C(=O)N[C@@H](CC(C)C)C(=O)N[C@@H](CC(=O)O)C(=O)N[C@@H](CCCCN)C(=O)N[C@@H](Cc3c[nH]c4ccccc34)C(=O)N[C@@H](C)C(=O)N[C@@H](CO)C(=O)N[C@@H](CC(C)C)C(=O)N[C@@H](Cc3c[nH]c4ccccc34)C(=O)N[C@@H](CC(N)=O)C(=O)N[C@@H](Cc3c[nH]c4ccccc34)C(=O)N[C@@H](Cc3ccccc3)C(=O)O)CS2)C(=O)N[C@@H](CCCCNC(=O)CNC(=O)C2N[C@H](C(=O)N[C@@H](CCC(N)=O)C(=O)N[C@@H](CC(N)=O)C(=O)N[C@@H](CCC(N)=O)C(=O)N[C@@H](CCC(N)=O)C(=O)N[C@@H](CCC(=O)O)C(=O)N[C@@H](CCCCN)C(=O)N[C@@H](CC(N)=O)C(=O)N[C@@H](CCC(=O)O)C(=O)N[C@@H](CCC(N)=O)C(=O)N[C@@H](CCC(=O)O)C(=O)N[C@@H](CC(C)C)C(=O)N[C@@H](CC(C)C)C(=O)N[C@@H](CCC(=O)O)C(=O)N[C@@H](CC(C)C)C(=O)N[C@@H](CC(=O)O)C(=O)N[C@@H](CCCCN)C(=O)N[C@@H](Cc3c[nH]c4ccccc34)C(=O)N[C@@H](C)C(=O)N[C@@H](CO)C(=O)N[C@@H](CC(C)C)C(=O)N[C@@H](Cc3c[nH]c4ccccc34)C(=O)N[C@@H](CC(N)=O)C(=O)N[C@@H](Cc3c[nH]c4ccccc34)C(=O)N[C@@H](Cc3ccccc3)C(=O)O)CS2)C(=O)N[C@@H](CO)C(=O)N[C@@H](CO)C(=O)N[C@@H](C)C(N)=O)N1)C(=O)N[C@@H](Cc1c[nH]c2ccccc12)C(=O)N[C@@H](CC(N)=O)C(=O)N[C@@H](Cc1c[nH]c2ccccc12)C(=O)N[C@@H](Cc1ccccc1)C(=O)O` (stereo partly drawn) [Compound 3α-C24]: the IC50 in assay [1] was 290 nM; with T-tropic (R8) HIV-1, 310 nM; in the assay on M-tropic (BAL) HIV-1 it was 36 nM.

`CC(C)C[C@H](NC(=O)[C@H](CO)NC(=O)[C@H](C)NC(=O)[C@H](Cc1c[nH]c2ccccc12)NC(=O)[C@H](CCCCN)NC(=O)[C@H](CC(=O)O)NC(=O)[C@H](CC(C)C)NC(=O)[C@H](CCC(=O)O)NC(=O)[C@H](CC(C)C)NC(=O)[C@H](CC(C)C)NC(=O)[C@H](CCC(=O)O)NC(=O)[C@H](CCC(N)=O)NC(=O)[C@H](CCC(=O)O)NC(=O)[C@H](CC(N)=O)NC(=O)[C@H](CCCCN)NC(=O)[C@H](CCC(=O)O)NC(=O)[C@H](CCC(N)=O)NC(=O)[C@H](CCC(N)=O)NC(=O)[C@H](CC(N)=O)NC(=O)[C@H](CCC(N)=O)NC(=O)[C@@H]1CSC(C(=O)NCCCC[C@H](NC(=O)CCNC(=O)C2N[C@H](C(=O)N[C@@H](CCC(N)=O)C(=O)N[C@@H](CC(N)=O)C(=O)N[C@@H](CCC(N)=O)C(=O)N[C@@H](CCC(N)=O)C(=O)N[C@@H](CCC(=O)O)C(=O)N[C@@H](CCCCN)C(=O)N[C@@H](CC(N)=O)C(=O)N[C@@H](CCC(=O)O)C(=O)N[C@@H](CCC(N)=O)C(=O)N[C@@H](CCC(=O)O)C(=O)N[C@@H](CC(C)C)C(=O)N[C@@H](CC(C)C)C(=O)N[C@@H](CCC(=O)O)C(=O)N[C@@H](CC(C)C)C(=O)N[C@@H](CC(=O)O)C(=O)N[C@@H](CCCCN)C(=O)N[C@@H](Cc3c[nH]c4ccccc34)C(=O)N[C@@H](C)C(=O)N[C@@H](CO)C(=O)N[C@@H](CC(C)C)C(=O)N[C@@H](Cc3c[nH]c4ccccc34)C(=O)N[C@@H](CC(N)=O)C(=O)N[C@@H](Cc3c[nH]c4ccccc34)C(=O)N[C@@H](Cc3ccccc3)C(=O)O)CS2)C(=O)N[C@@H](CO)C(=O)N[C@@H](CO)C(=O)N[C@@H](C)C(N)=O)N1)C(=O)N[C@@H](Cc1c[nH]c2ccccc12)C(=O)N[C@@H](CC(N)=O)C(=O)N[C@@H](Cc1c[nH]c2ccccc12)C(=O)N[C@@H](Cc1ccccc1)C(=O)O` (stereo partly drawn) [Compound 2α-C24]: the half-maximal inhibitory concentration (IC50) in assay [1] turned out to be 38 nM; with T-tropic (R8) HIV-1 it was 80 nM; with M-tropic (BAL) HIV-1, 67 nM.

`CC[C@H](C)[C@H](NC(=O)[C@H](CC(C)C)NC(=O)[C@H](CO)NC(=O)[C@H](Cc1c[nH]cn1)NC(=O)[C@@H](NC(=O)[C@H](CC(C)C)NC(=O)[C@H](CO)NC(=O)[C@@H](NC(=O)[C@H](Cc1ccc(O)cc1)NC(=O)[C@H](CC(N)=O)NC(=O)[C@H](CC(N)=O)NC(=O)[C@@H](NC(=O)[C@@H]1CSC(C(=O)NCCCC[C@H](NC(=O)CCNC(=O)C2N[C@H](C(=O)N[C@H](C(=O)N[C@@H](CC(N)=O)C(=O)N[C@@H](CC(N)=O)C(=O)N[C@@H](Cc3ccc(O)cc3)C(=O)N[C@H](C(=O)N[C@@H](CO)C(=O)N[C@@H](CC(C)C)C(=O)N[C@H](C(=O)N[C@@H](Cc3c[nH]cn3)C(=O)N[C@@H](CO)C(=O)N[C@@H](CC(C)C)C(=O)N[C@H](C(=O)N[C@@H](CCC(=O)O)C(=O)N[C@@H](CCC(=O)O)C(=O)N[C@@H](CO)C(=O)N[C@@H](CCC(N)=O)C(=O)N[C@@H](CC(N)=O)C(=O)N[C@@H](CCC(N)=O)C(=O)N[C@@H](CCC(N)=O)C(=O)N[C@@H](CCC(=O)O)C(=O)N[C@@H](CCCCN)C(=O)N[C@@H](CC(N)=O)C(=O)N[C@@H](CCC(=O)O)C(=O)N[C@@H](CCC(N)=O)C(=O)N[C@@H](CCC(=O)O)C(=O)N[C@@H](CC(C)C)C(=O)N[C@@H](CC(C)C)C(=O)O)[C@@H](C)CC)[C@@H](C)CC)[C@@H](C)O)[C@@H](C)CC)CS2)C(=O)N[C@@H](CCCCNC(=O)CNC(=O)C2N[C@H](C(=O)N[C@H](C(=O)N[C@@H](CC(N)=O)C(=O)N[C@@H](CC(N)=O)C(=O)N[C@@H](Cc3ccc(O)cc3)C(=O)N[C@H](C(=O)N[C@@H](CO)C(=O)N[C@@H](CC(C)C)C(=O)N[C@H](C(=O)N[C@@H](Cc3c[nH]cn3)C(=O)N[C@@H](CO)C(=O)N[C@@H](CC(C)C)C(=O)N[C@H](C(=O)N[C@@H](CCC(=O)O)C(=O)N[C@@H](CCC(=O)O)C(=O)N[C@@H](CO)C(=O)N[C@@H](CCC(N)=O)C(=O)N[C@@H](CC(N)=O)C(=O)N[C@@H](CCC(N)=O)C(=O)N[C@@H](CCC(N)=O)C(=O)N[C@@H](CCC(=O)O)C(=O)N[C@@H](CCCCN)C(=O)N[C@@H](CC(N)=O)C(=O)N[C@@H](CCC(=O)O)C(=O)N[C@@H](CCC(N)=O)C(=O)N[C@@H](CCC(=O)O)C(=O)N[C@@H](CC(C)C)C(=O)N[C@@H](CC(C)C)C(=O)O)[C@@H](C)CC)[C@@H](C)CC)[C@@H](C)O)[C@@H](C)CC)CS2)C(=O)N[C@@H](CO)C(=O)N[C@@H](CO)C(=O)N[C@@H](C)C(N)=O)N1)[C@@H](C)CC)[C@@H](C)O)[C@@H](C)CC)C(=O)N[C@@H](CCC(=O)O)C(=O)N[C@@H](CCC(=O)O)C(=O)N[C@@H](CO)C(=O)N[C@@H](CCC(N)=O)C(=O)N[C@@H](CC(N)=O)C(=O)N[C@@H](CCC(N)=O)C(=O)N[C@@H](CCC(N)=O)C(=O)N[C@@H](CCC(=O)O)C(=O)N[C@@H](CCCCN)C(=O)N[C@@H](CC(N)=O)C(=O)N[C@@H](CCC(=O)O)C(=O)N[C@@H](CCC(N)=O)C(=O)N[C@@H](CCC(=O)O)C(=O)N[C@@H](CC(C)C)C(=O)N[C@@H](CC(C)C)C(=O)O` (stereo partly drawn) [Compound 3α-C27]: the IC50 worked out at 2.8 nM in assay [1], 380 nM with T-tropic (R8) HIV-1 and 0.5 nM in the assay with M-tropic (BAL) HIV-1.
